Laboratory results: patent US6486199B1, “Spiro and dispiro 1,2,4-trioxolane antimalarials” (Medicines for Malaria Venture MMV International Centre …, priority 2001, dated 2002)
Marks after values point to notes of the source that are not given here.

What was measured:
[1] = test system: chloroquine-sensitive NF54 strain of P. falciparum; assay: in vitro screen against chloroquine-sensitive NF54 strain of P. falciparum; type: cell-based; settings: in vitro, NF54 strain
[2] = test system: ANKA strain of P. Berghei; assay: single dose STI in vivo screen in infected Moro SPF mice; settings: for antimalarial activity, overall assessment: overall judgement of in vitro and in vivo data of Table 2; for Activity (%) po / Activity (%) sc: percent reduction in parasitemia day 3 post-infection; for in vivo activity: 10 mg/kg po/sc data of Table 2
Procedure: In the single dose STI in vivo screen, Moro SPF mice infected with the ANKA strain of P. Berghei (groups of three mice) were treated on day one post-infection with trioxolanes dissolved or suspended in 3% ethanol and 7% Tween 80. […] Antimalarial activity was measured by percent redution in parasitemia on day three post-infection and survival times compared to an untreated control group. Survival to day 30 post-infection is considered to be a cure.

[3] = differential scanning calorimetry (DSC), thermal stability; type: physicochemical; settings: thermal decomposition
P. berghei [4] = assay: 1-day Peters test against P. berghei in vivo; settings: for oral activity based on po ED50/ED90 values: ranking among trioxolanes and controls
[5] = test system: 21-day-old schistosomules of Schistosoma mansoni; assay: effect on 21-day-old schistosomules in mice; type: in vivo; settings: single 200 mg/kg per os; for FWR (%): female worm reduction rate; for Mean female worm burden: mean ± standard deviation; for TWR (%): total worm reduction rate
Procedure: […] Each group was treated per os with OZ compounds at a single dose of 200 mg/kg. Untreated mice served as the control. All groups were killed 4 weeks after treatment and the liver and intestine were removed and separated. The liver and intestine were compressed and alive male and female worms could be seen and counted. The effect of the compounds was evaluated by mean total and female worm burden.

[6] = test system: adult schistosomes (49-day-old) of Schistosoma mansoni; assay: effect on adult schistosomes (49-day-old) in mice; type: in vivo; settings: single 400 mg/kg per os; for TWR (%): total worm reduction rate; for Mean total worm burden: x ± SD
Procedure: Mice were infected with 100 Schistosoma mansoni cercariae […]. Each group was treated per os with OZ compounds at a single dose of 400 mg/kg. Untreated mice served as the control. All groups were killed 4 weeks after treatment and the liver and intestine were removed and separated. The liver and intestine were compressed and alive male and female worms could be seen and counted.

P. berghei [7] = assay: 4-day Peters test against P. berghei in vivo; settings: 4 day
[8] = test system: chloroquine-resistant K1 strain of P. falciparum; assay: in vitro screen against chloroquine-resistant K1 strain of P. falciparum; type: cell-based; settings: in vitro; for in vitro potency: strains not distinguished

Molecule: O=C(CCl)N1CCC2(CC1)OOC1(O2)C2CC3CC(C2)CC1C3 (stereo not drawn) [OZ87, Adamantane-2-spiro-3′-8′-chloroacetyl-1′,2′,4′-trioxa-8′-azaspiro[4.5]decane]
- IC50 (ng/ml) NF54 [1]: /4.5 ng/ml
- antimalarial activity, overall assessment [2]: much less active
- Tm dec. (° C.) [3]: 149.7 °C

Molecule: Fc1ccc(C2CCC3(CC2)OOC2(O3)C3CC4CC(C3)CC2C4)cc1 (stereo not drawn) [OZ41, Adamantane-2-spiro-3′-8′-(4′-fluorophenyl)-1′,2′,4′-trioxaspiro[4.5]decane]
- P. berghei (1 day) ED50 po (P. berghei [4]): 2.8 mg/kg
- P. berghei (1 day) ED90 po (P. berghei [4]): 5.1 mg/kg
- Tm dec. (° C.) [3]: 159.0 °C

Molecule: OCCC1CCC2(CC1)OOC1(O2)C2CC3CC(C2)CC1C3 (stereo not drawn) [OZ89, Adamantane-2-spiro-3′-8′-(2′-hydroxyethyl)-1′,2′,4′-trioxaspiro[4.5]decane]
- IC50 (ng/ml) NF54 [1]: /1.0 ng/ml
- antimalarial activity, overall assessment [2]: quite active
- Tm dec. (° C.) [3]: 154.7 °C

Molecule: CC(C)(C)C1CCC2(CC1)OOC1(O2)C2CC3CC(C2)CC1C3 (stereo not drawn) [OZ18, Adamantane-2-spiro-3′-8′-t-butyl-1′,2′,4′-trioxaspiro[4.5]decane]
- antimalarial activity, overall assessment [2]: completely inactive
- Activity (%) po ([2]; single 10 mg/kg po): 0/0%
- Activity (%) sc ([2]; single 10 mg/kg sc): 0/0%
- FWR (%) [5]: 9%
- Mean female worm burden [5]: 11.4 ± 2.7^a
- TWR (%) [5]: 12%
- Percentage of dead worm [6]: 0
- Total dead worm [6]: 0
- TWR (%) [6]: 0.6%
- Mean total worm burden [6]: 35.6 ± 7.2^a
- Tm dec. (° C.) [3]: 166.5 °C

Molecule: CON=C1CCC2(CC1)OOC1(O2)C2CC3CC(C2)CC1C3 (stereo not drawn) [OZ15, Adamantane-2-spiro-3′-8′-methoxyimino-1′,2′,4′-trioxaspiro[4.5]decane]
- P. berghei (1 day) ED50 po (P. berghei [4]): 3.1 mg/kg
- P. berghei (1 day) ED90 po (P. berghei [4]): 5.9 mg/kg
- P. berghei (1 day) ED50 sc (P. berghei [4]): 0.7 mg/kg
- P. berghei (1 day) ED90 sc (P. berghei [4]): 2.6 mg/kg
- P. berghei (4 day) ED50 po (P. berghei [7]): 2.9 mg/kg
- P. berghei (4 day) ED90 po (P. berghei [7]): 6.3 mg/kg
- P. berghei (4 day) ED50 sc (P. berghei [7]): 0.7 mg/kg
- P. berghei (4 day) ED90 sc (P. berghei [7]): 1.1 mg/kg
- FWR (%) [5]: 70%
- Mean female worm burden [5]: 3.8 ± 2.4^b
- TWR (%) [5]: 63%
- Percentage of dead worm [6]: 10 (21/210)
- Total dead worm [6]: 21
- TWR (%) [6]: 0%
- Mean total worm burden [6]: 37.8 ± 20.6
- Tm dec. (° C.) [3]: 157.8 °C

Molecule: O=C1CC2CC3(CC2C1)OOC1(O3)C2CC3CC(C2)CC1C3 (stereo not drawn) [OZ12, Adamantane-2-spiro-3′-1′,2′,4′-trioxolane-5′-spiro-3″-7″-oxo-cis-bicyclo[3.3.0]octane]
- P. berghei (4 day) ED50 po (P. berghei [7]): 6.8 mg/kg
- P. berghei (4 day) ED90 po (P. berghei [7]): 10.5 mg/kg
- P. berghei (4 day) ED50 sc (P. berghei [7]): 0.8 mg/kg
- P. berghei (4 day) ED90 sc (P. berghei [7]): 1.4 mg/kg
- Tm dec. (° C.) [3]: 149.8 °C

Molecule: CCS(=O)(=O)N1CCC2(CC1)OOC1(O2)C2CC3CC(C2)CC1C3 (stereo not drawn) [OZ79, Adamantane-2-spiro-3′-8′-ethanesulfonyl-1′,2′,4′-trioxa-8′-azaspiro[4.5]decane]
- in vitro potency [8]: very potent
- in vivo activity [2]: good
- Tm dec. (° C.) [3]: 153.6 °C

Molecule: c1ccc2c(c1)COC1(CCC3(CC1)OOC1(O3)C3CC4CC(C3)CC1C4)OC2 (stereo not drawn) [OZ31, Adamantane-2-spiro-3′-11′,12′-benzo-1′,2′,4′, 9′,14′-pentaoxadispiro[4.2.6.2]hexadecane]
- Activity (%) po ([2]; single 10 mg/kg po): 99.95/99.95%
- Activity (%) sc ([2]; single 10 mg/kg sc): 99.95/99.95%
- P. berghei (1 day) ED50 po (P. berghei [4]): 1.6 mg/kg
- P. berghei (1 day) ED90 po (P. berghei [4]): 3.9 mg/kg
- P. berghei (1 day) ED50 sc (P. berghei [4]): 1.1 mg/kg
- P. berghei (1 day) ED90 sc (P. berghei [4]): 2.4 mg/kg
- Tm dec. (° C.) [3]: 161.1 °C

Molecule: CCCC1CCC2(CC1)OOC1(O2)C2CC3CC(C2)CC1C3 (stereo not drawn) [OZ25, Adamantane-2-spiro-3′-8′-propyl-1′,2′,4′-trioxaspiro[4.5]decane]
- antimalarial activity, overall assessment [2]: excellent activity
- P. berghei (1 day) ED50 po (P. berghei [4]): 1.9 mg/kg
- P. berghei (1 day) ED90 po (P. berghei [4]): 3.1 mg/kg
- P. berghei (1 day) ED50 sc (P. berghei [4]): 1.7 mg/kg
- P. berghei (1 day) ED90 sc (P. berghei [4]): 3.0 mg/kg
- oral activity based on po ED50/ED90 values (P. berghei [4]): only slightly less orally active than OZ11
- P. berghei (4 day) ED50 po (P. berghei [7]): 1.2 mg/kg
- P. berghei (4 day) ED90 po (P. berghei [7]): 3.7 mg/kg
- P. berghei (4 day) ED50 sc (P. berghei [7]): 2.2 mg/kg
- P. berghei (4 day) ED90 sc (P. berghei [7]): 3.7 mg/kg
- Tm dec. (° C.) [3]: 167.7 °C

Molecule: CC(=O)N1CCC2(CC1)OOC1(O2)C2CC3CC(C2)CC1C3 (stereo not drawn) [OZ49, Adamantane-2-spiro-3′-8′-acetyl-1′,2′,4′-trioxa-8′-azaspiro[4.5]decane]
- in vitro potency, fold less potent than the analog [8]: 2 fold
- Tm dec. (° C.) [3]: 155.7 °C

Molecule: c1ccc(CON=C2CCC3(CC2)OOC2(O3)C3CC4CC(C3)CC2C4)cc1 (stereo not drawn) [OZ19, Adamantane-2-spiro-3′-8′-benzyloxyimino-1′,2′,4′-trioxaspiro[4.5]decane]
- in vitro potency, fold less potent than the analog [8]: ~2 fold
- P. berghei (1 day) ED50 po (P. berghei [4]): 3.4 mg/kg
- P. berghei (1 day) ED90 po (P. berghei [4]): 9.4 mg/kg
- P. berghei (1 day) ED50 sc (P. berghei [4]): 1.8 mg/kg
- P. berghei (1 day) ED90 sc (P. berghei [4]): 3.6 mg/kg
- P. berghei (4 day) ED50 po (P. berghei [7]): <10/>10 mg/kg
- P. berghei (4 day) ED90 po (P. berghei [7]): <10/>10 mg/kg
- Tm dec. (° C.) [3]: 157.8 °C

Molecule: O=C(c1ccccc1)N1CCC2(CC1)OOC1(O2)C2CC3CC(C2)CC1C3 (stereo not drawn) [OZ24, Adamantane-2-spiro-3′-8′-benzoyl-1′,2′,4′-trioxa-8′-azaspiro[4.5]decane]
- P. berghei (1 day) ED50 po (P. berghei [4]): 3.9 mg/kg
- P. berghei (1 day) ED90 po (P. berghei [4]): 9.0 mg/kg
- P. berghei (1 day) ED90 sc (P. berghei [4]): NA/2.1 mg/kg
- P. berghei (4 day) ED50 po (P. berghei [7]): <10/>10 mg/kg
- P. berghei (4 day) ED90 po (P. berghei [7]): <10/>10 mg/kg
- Tm dec. (° C.) [3]: 154.9 °C

Molecule: Clc1ccc(C2(c3ccc(Cl)cc3)OOC3(O2)C2CC4CC(C2)CC3C4)cc1 (stereo not drawn) [OZ43, Adamantane-2-spiro-3′-5′, 5′-bis(4′-chlorophenyl)-1′,2′,4′-trioxolane]
- P. berghei (1 day) ED50 po (P. berghei [4]): 2.1 mg/kg
- P. berghei (1 day) ED90 po (P. berghei [4]): 4.0 mg/kg
- oral activity based on po ED50/ED90 values (P. berghei [4]): only slightly less orally active than OZ11
- Percentage of dead worm [6]: 0
- Total dead worm [6]: 0
- TWR (%) [6]: 1.1%
- Mean total worm burden [6]: 35.4 ± 15.8^a
- Tm dec. (° C.) [3]: 155.8 °C

Molecule: CC(=O)OCC(=O)N1CCC2(CC1)OOC1(O2)C2CC3CC(C2)CC1C3 (stereo not drawn) [OZ82, Adamantane-2-spiro-3′-8′-acetoxyacetyl-1′,2′,4′-trioxa-8′-azaspiro[4.5]decane]
- IC50 (ng/ml) NF54 [1]: /1.3 ng/ml
- antimalarial activity, overall assessment [2]: very active
- Tm dec. (° C.) [3]: 153.7 °C

Molecule: O=S(=O)(c1ccc(F)cc1)N1CCC2(CC1)OOC1(O2)C2CC3CC(C2)CC1C3 (stereo not drawn) [OZ86, Adamantane-2-spiro-3′-8′-(4′-fluorobenzenesulfonyl)-1′,2′,4′-trioxa-8′-azaspiro[4.5]decane]
- IC50 (ng/ml) NF54 [1]: /2.3 ng/ml
- Tm dec. (° C.) [3]: 153.0 °C

Molecule: O=C(OCCC1CCC2(CC1)OOC1(O2)C2CC3CC(C2)CC1C3)c1ccc([N+](=O)[O-])cc1 (stereo not drawn) [OZ88, Adamantane-2-spiro-3′-8′-[2′-(4′-nitrobenzoyloxy)ethyl]-1′,2′,4′-trioxaspiro[4.5]decane]
- IC50 (ng/ml) NF54 [1]: /4.2 ng/ml
- Tm dec. (° C.) [3]: 158.9 °C

Molecule: Adamantane-2-spiro-3′-1′,2′,4′-trioxaspiro[4.5]decan-8′-one pyridinioacetylhydrazone chloride [OZ55]
- in vitro potency [8]: quite potent
- in vivo activity [2]: minimal
- Activity (%) po ([2]; single 10 mg/kg po): 45%
- Activity (%) sc ([2]; single 10 mg/kg sc): 97%
- Survival (days) po ([2]; single 10 mg/kg po): 6.0 days
- Survival (days) sc ([2]; single 10 mg/kg sc): 7.3 days
